Experiments:
Axl = biological target: T1, Axl (Homo sapiens, UniProt P30530); test: Biochemical potency, HTRF KinEASE-TK kinase assay; parameters: purchased Invitrogen; conditions: 5 nM AXL, 700 μM ATP
T1 sequence (P30530 26-894): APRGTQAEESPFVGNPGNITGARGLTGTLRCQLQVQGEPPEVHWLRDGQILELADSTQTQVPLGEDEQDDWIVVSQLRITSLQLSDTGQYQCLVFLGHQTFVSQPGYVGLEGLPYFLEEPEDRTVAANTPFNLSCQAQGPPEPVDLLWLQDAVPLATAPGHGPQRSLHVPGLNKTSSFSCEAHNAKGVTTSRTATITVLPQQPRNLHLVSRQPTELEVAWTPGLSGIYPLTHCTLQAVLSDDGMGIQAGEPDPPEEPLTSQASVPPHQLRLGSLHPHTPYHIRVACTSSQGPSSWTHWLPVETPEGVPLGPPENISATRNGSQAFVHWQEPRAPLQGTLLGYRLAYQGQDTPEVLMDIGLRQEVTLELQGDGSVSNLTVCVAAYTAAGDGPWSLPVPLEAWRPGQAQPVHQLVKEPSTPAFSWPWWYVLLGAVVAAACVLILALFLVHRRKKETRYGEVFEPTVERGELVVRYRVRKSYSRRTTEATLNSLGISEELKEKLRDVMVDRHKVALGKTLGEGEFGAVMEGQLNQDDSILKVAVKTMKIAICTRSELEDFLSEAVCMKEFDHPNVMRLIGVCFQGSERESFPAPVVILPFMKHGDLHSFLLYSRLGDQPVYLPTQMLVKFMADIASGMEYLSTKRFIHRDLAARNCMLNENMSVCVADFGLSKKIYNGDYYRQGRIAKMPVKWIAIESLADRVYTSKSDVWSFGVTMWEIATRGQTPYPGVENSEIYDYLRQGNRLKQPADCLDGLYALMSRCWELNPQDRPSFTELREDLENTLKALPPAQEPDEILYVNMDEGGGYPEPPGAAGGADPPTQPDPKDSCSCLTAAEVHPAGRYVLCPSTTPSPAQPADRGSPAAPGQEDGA
Procedure, shortened: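 Enzyme (AXL 5 nM; TYRO3 or MER 1 nM final) was preincubated with compound for 1 h at RT, then reacted for 2 h at RT with 800 nM biotinylated TK substrate and 700 µM ATP in HEPES pH 7.4, MgCl2, DTT, BSA, 1% DMSO. Percent activity came from the HTRF 665/620 ratio.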

p-AXL = biological target: T2, p-AXL (Homo sapiens, UniProt P30530); test: Axl phosphorylation inhibition ELISA in HEK293T cells transfected with NanoLuc-tagged AXL; format: cell-based; conditions: 1 h compound incubation, media (OptiMEM)
T2 construct: expressed in transfected cells; host or cells: HEK293T
T2 sequence (P30530 26-894): T1 sequence (P30530 26-894)
Procedure, shortened: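 HEK293T cells transiently transfected one day earlier with NanoLuc-tagged AXL were exposed to 22-point 2-fold compound dilutions for 1 h at 37° C (70,000 cells/well), then lysed. Lysates captured on anti-phospho-tyrosine coated plates for 2 h; bound p-AXL read by NanoLuc luminescence; IC50 from 4-parameter logistic fit.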

IC50 (Axl) [µM] | IC50 (p-AXL) [µM] | Structure (SMILES)
< 0.1 | < 0.1 | Cc1ccc(C)c(-c2ccc(-c3c[nH]c4ncc(-c5ccc6c(c5)CC[C@@](C)(N5CCC[C@H]5C)CC6)cc34)cc2)n1 [Example 147, 3,6-Dimethyl-2-(4-{5-[(7S)-7-methyl-7-[(2R)-2-methylpyrrolidin-1-yl]-6,7,8,9-tetrahydro-5H-benzo[7]annulen-2-yl]-1H-pyrrolo[2,3-b]pyridin-3-yl}phenyl)pyridine]
< 0.1 | 0.1 to 1 | Cc1ccc(C)c(-c2ccc(-c3c[nH]c4ncc(-c5ccc6c(c5)CC[C@@H](N5CCCC5)CC6)cc34)cc2)n1 [Example 148, 3,6-Dimethyl-2-(4-{5-[(7S)-7-(pyrrolidin-1-yl)-6,7,8,9-tetrahydro-5H-benzo[7]annulen-2-yl]-1H-pyrrolo[2,3-b]pyridin-3-yl}phenyl)pyridine]
< 0.1 | < 0.1 | c1cnc(-c2ccc(-c3n[nH]c4ncc(-c5ccc6c(c5)CC[C@@H](N5C7COCC5C7)CC6)cc34)cc2)c(C2CCOCC2)c1 [Example 149, 6-[(7S)-2-(3-{4-[3-(Oxan-4-yl)pyridin-2-yl]phenyl}-1H-pyrazolo[3,4-b]pyridin-5-yl)-6,7,8,9-tetrahydro-5H-benzo[7]annulen-7-yl]-3-oxa-6-azabicyclo[3.1.1]heptane]
< 0.1 | 0.1 to 1 | c1cc2c(c(-c3ccc(-c4n[nH]c5ncc(-c6ccc7c(c6)CC[C@@H](N6C8COCC6C8)CC7)cc45)cc3)n1)NCCO2 [Example 150, 6-[(7S)-2-[3-(4-{2H,3H,4H-Pyrido[4,3-b][1,4]oxazin-5-yl}phenyl)-1H-pyrazolo[3,4-b]pyridin-5-yl]-6,7,8,9-tetrahydro-5H-benzo[7]annulen-7-yl]-3-oxa-6-azabicyclo[3.1.1]heptane]
< 0.1 | < 0.1 | CN1CCOc2ccnc(-c3ccc(-c4n[nH]c5ncc(-c6ccc7c(c6)CC[C@@H](N6C8COCC6C8)CC7)cc45)cc3)c21 [Example 151, 6-[(7S)-2-[3-(4-{4-Methyl-2H,3H,4H-pyrido[4,3-b][1,4]oxazin-5-yl}phenyl)-1H-pyrazolo[3,4-b]pyridin-5-yl]-6,7,8,9-tetrahydro-5H-benzo[7]annulen-7-yl]-3-oxa-6-azabicyclo[3.1.1]heptane]
< 0.1 | < 0.1 | COc1ccnc(-c2ccc(-c3n[nH]c4ncc(-c5ccc6c(c5)CC[C@@H](N5C7COCC5C7)CC6)cc34)cc2)c1OC [Example 152, 6-[(7S)-2-{3-[4-(3,4-Dimethoxypyridin-2-yl)phenyl]-1H-pyrazolo[3,4-b]pyridin-5-yl}-6,7,8,9-tetrahydro-5H-benzo[7]annulen-7-yl]-3-oxa-6-azabicyclo[3.1.1]heptane]
< 0.1 | < 0.1 | Cc1cccnc1-c1ccc(-c2c[nH]c3ncc(-c4ccc5c(c4)CC[C@@H](N4C6COCC4C6)CC5)cc23)c(F)c1 [Example 153, 6-[(7S)-2-{3-[2-Fluoro-4-(3-methylpyridin-2-yl)phenyl]-1H-pyrrolo[2,3-b]pyridin-5-yl}-6,7,8,9-tetrahydro-5H-benzo[7]annulen-7-yl]-3-oxa-6-azabicyclo[3.1.1]heptane]
< 0.1 | < 0.1 | Cc1cccnc1-c1cnc(-c2c[nH]c3ncc(-c4ccc5c(c4)CC[C@@H](N4C6COCC4C6)CC5)cc23)cn1 [Example 184, 6-[(7S)-2-{3-[5-(3-Methylpyridin-2-yl)pyrazin-2-yl]-1H-pyrrolo[2,3-b]pyridin-5-yl}-6,7,8,9-tetrahydro-5H-benzo[7]annulen-7-yl]-3-oxa-6-azabicyclo[3.1.1]heptane]
< 0.1 | 0.1 to 1 | Cc1ccc(C)c(-c2ccc(-c3n[nH]c4ncc(-c5ccc6c(c5)CC[C@@H](N5C7COCC5C7)CC6)cc34)cc2C)n1 [Example 185, 6-[(7S)-2-{3-[4-(3,6-Dimethylpyridin-2-yl)-3-methylphenyl]-1H-pyrazolo[3,4-b]pyridin-5-yl}-6,7,8,9-tetrahydro-5H-benzo[7]annulen-7-yl]-3-oxa-6-azabicyclo[3.1.1]heptane]
< 0.1 | < 0.1 | Cc1cnc(-c2ccc(-c3n[nH]c4ncc(-c5ccc6c(c5)CC[C@@](C)(N5CCC[C@H]5C)CC6)cc34)cc2)c(C)n1 [Example 188, 3,5-Dimethyl-2-(4-{5-[(7S)-7-methyl-7-[(2R)-2-methylpyrrolidin-1-yl]-6,7,8,9-tetrahydro-5H-benzo[7]annulen-2-yl]-1H-pyrazolo[3,4-b]pyridin-3-yl}phenyl)pyrazine]
< 0.1 | 0.1 to 1 | Cc1cnc(-c2ccc(-c3n[nH]c4ncc(-c5ccc6c(c5)CC[C@@H](N5CCCC5)CC6)cc34)cc2)c(C)n1 [Example 189, 3,5-Dimethyl-2-(4-{5-[(7S)-7-(pyrrolidin-1-yl)-6,7,8,9-tetrahydro-5H-benzo[7]annulen-2-yl]-1H-pyrazolo[3,4-b]pyridin-3-yl}phenyl)pyrazine]
< 0.1 | 0.1 to 1 | Cc1cnc(-c2ccc(-c3n[nH]c4ncc(-c5ccc6c(c5)CC[C@@H](N5C7COCC5C7)CC6)cc34)cc2)c(C)n1 [Example 190, 6-[(7S)-2-{3-[4-(3,5-Dimethylpyrazin-2-yl)phenyl]-1H-pyrazolo[3,4-b]pyridin-5-yl}-6,7,8,9-tetrahydro-5H-benzo[7]annulen-7-yl]-3-oxa-6-azabicyclo[3.1.1]heptane]
< 0.1 | < 0.1 | Cc1ccc(C)c(-c2ccc(-c3c[nH]c4ncc(-c5ccc6c(c5)CC[C@@H](N5C7COCC5C7)CC6)cc34)cc2C)n1 [Example 191, 6-[(7S)-2-{3-[4-(3,6-Dimethylpyridin-2-yl)-3-methylphenyl]-1H-pyrrolo[2,3-b]pyridin-5-yl}-6,7,8,9-tetrahydro-5H-benzo[7]annulen-7-yl]-3-oxa-6-azabicyclo[3.1.1]heptane]
< 0.1 | 0.1 to 1 | Cc1ccc(C(C)(C)O)nc1-c1ccc(-c2n[nH]c3ncc(-c4ccc5c(c4)CC[C@@H](N4C6COCC4C6)CC5)cc23)cc1 [Example 192, 2-[5-Methyl-6-(4-{5-[(7S)-7-{3-oxa-6-azabicyclo[3.1.1]heptan-6-yl}-6,7,8,9-tetrahydro-5H-benzo[7]annulen-2-yl]-1H-pyrazolo[3,4-b]pyridin-3-yl}phenyl)pyridin-2-yl]propan-2-ol]
< 0.1 | < 0.1 | Cc1cccnc1-c1cnc(-c2n[nH]c3ncc(-c4ccc5c(c4)CC[C@@H](N4C6COCC4C6)CC5)cc23)cn1 [Example 193, 6-[(7S)-2-{3-[5-(3-Methylpyridin-2-yl)pyrazin-2-yl]-1H-pyrazolo[3,4-b]pyridin-5-yl}-6,7,8,9-tetrahydro-5H-benzo[7]annulen-7-yl]-3-oxa-6-azabicyclo[3.1.1]heptane]
< 0.1 | < 0.1 | c1cc2c(c(-c3ccc(-c4c[nH]c5ncc(-c6ccc7c(c6)CC[C@@H](N6C8COCC6C8)CC7)cc45)cc3)n1)OCCO2 [Example 194, 6-[(7S)-2-[3-(4-{2H,3H-[1,4]Dioxino[2,3-c]pyridin-5-yl}phenyl)-1H-pyrrolo[2,3-b]pyridin-5-yl]-6,7,8,9-tetrahydro-5H-benzo[7]annulen-7-yl]-3-oxa-6-azabicyclo[3.1.1]heptane]
< 0.1 | 0.1 to 1 | Cc1cc(C)c(-c2ccc(-c3n[nH]c4ncc(-c5ccc6c(c5)CC[C@@H](N5C7COCC5C7)CC6)cc34)cc2)cn1 [Example 195, 6-[(7S)-2-{3-[4-(4,6-Dimethylpyridin-3-yl)phenyl]-1H-pyrazolo[3,4-b]pyridin-5-yl}-6,7,8,9-tetrahydro-5H-benzo[7]annulen-7-yl]-3-oxa-6-azabicyclo[3.1.1]heptane]
< 0.1 | 0.1 to 1 | Cc1cc(C)c(-c2ccc(-c3c[nH]c4ncc(-c5ccc6c(c5)CC[C@@H](N5C7COCC5C7)CC6)cc34)cc2)cn1 [Example 196, 6-[(7S)-2-{3-[4-(4,6-Dimethylpyridin-3-yl)phenyl]-1H-pyrrolo[2,3-b]pyridin-5-yl}-6,7,8,9-tetrahydro-5H-benzo[7]annulen-7-yl]-3-oxa-6-azabicyclo[3.1.1]heptane]
< 0.1 | 0.1 to 1 | Cc1cccc(C#N)c1-c1ccc(-c2c[nH]c3ncc(-c4ccc5c(c4)CC[C@@H](N4C6COCC4C6)CC5)cc23)nc1 [Example 197, 3-Methyl-2-(6-{5-[(7S)-7-{3-oxa-6-azabicyclo[3.1.1]heptan-6-yl}-6,7,8,9-tetrahydro-5H-benzo[7]annulen-2-yl]-1H-pyrrolo[2,3-b]pyridin-3-yl}pyridin-3-yl)benzonitrile]

— US12195482B1 (Arcus Biosciences, Inc., priority 2022, dated 2025)
